Assay results reported in PMC9114170, “Investigation of the Role of Hydrophobic Amino Acids on the Structure-Activity Relationship in the Antimicrobial Venom Peptide Ponericin L1” (The Journal of membrane biology, 2021).
Ends that are not written are not given here.

Legend:
[1] = test system: Acinetobacter baumannii ATCC 19606; type: cell-based; settings: highest concentration tested 15 μM
Description: (§1) Six different strains of bacteria were streaked on LB-Miller agar plates from a frozen glycerol stock derived from the original samples shipped from CGSC (Coli Genetic Stock Center, Yale University) or ATCC (American Type Culture Collection) (Escherichia coli D31 CGSC 5165 ([Burman, Nordstrom & Boman, 1968]), Staphylococcus aureus ATCC 35556. Pseudomonas aeruginosa PA-01 ATCC 47085, Acinetobacter baumannii ATCC 19606). For each of the strains a liquid overnight culture was prepared using a single colony into fresh LB broth and placed in a shaking incubator for ~ 18 hours at 37 C at 225 rpm. After the incubation period, a 1:200 dilution was made in fresh LB broth and then used for experimentation. Minimal Inhibitory Concentration (MIC) determinations were performed using mid-log phase bacteria diluted to 5 x 10^5 CFU/mL. Next, 90 μL of this diluted culture was then pipetted into a sterile 96-well plate that contains serially diluted aliquots of the peptide variants to consist of a total volume of 100 μL. This plate was then incubated for 18 hours at 37 C. Bacterial growth was determined by taking an OD600 measurement using a Spectramax M5 multimode plate reader post incubation. Minimal Bactericidal Concentration (MBC) was performed by taking 1 μL of the culture from the MIC plate and then pipetting it on to a fresh LB agar plate. After plating this culture, the plate was then incubated overnight at 37 C. MBC was determined by the growth or the lack of growth from each well on the agar plate.
(§2) The ability of L1 and the hydrophobic variants to act as antimicrobials was investigated using the Minimal Inhibitory Concentration (MIC) and Minimal Bactericidal Concentration (MBC) assays as previously described ([Wiegand, Hilpert & Hancock, 2008]). The MIC is determined as the lowest concentration of peptide required to inhibit bacterial growth in solution, while the MBC is the lowest concentration required to act in a bactericidal mechanism (as opposed to bacteriostatic) and is determined by plating MIC cultures on antimicrobial-free media. Peptides were screened against E. coli, S. aureus, A. baumannii, P. aeruginosa, B. subtilis, and K. pneumoniae.

B. subtilis = type: cell-based; settings: highest concentration tested 15 μM
Description: as §1, §2

[2] = test system: Escherichia coli D31 CGSC 5165; type: cell-based; settings: highest concentration tested 15 μM
Description: as §1, §2

K. pneumoniae = type: cell-based; settings: highest concentration tested 15 μM
Description: as §1, §2

[3] = test system: Pseudomonas aeruginosa PA-01 ATCC 47085; type: cell-based; settings: highest concentration tested 15 μM
Description: as §1, §2

[4] = test system: Staphylococcus aureus ATCC 35556; type: cell-based; settings: highest concentration tested 15 μM
Description: as §1, §2

[5] = Peptide binding to lipid vesicles by Trp emission barycenter shift; type: physicochemical; settings: anionic and zwitterionic SUVs titrated into 2 μM peptide in PBS; λex 280 nm, λem 300 to 400 nm
Description: To form small unilamellar vesicles (SUVs) sonication or ethanol dilution methods were implemented ([Caputo & London, 2019]). In all cases, lipid vesicle preparation was the same. Depending on the lipid composition, appropriate volumes of lipids in chloroform were mixed in a glass tube and then allowed to dry under N2 gas for 15 minutes. The lipid films were then placed in a vacuum desiccator and allowed to dry further under a vacuum for 1 hour. For vesicles formed through ethanol dilution methods, 10 μL of pure ethanol was added to the film, and then vortex until the dissipation of the film. While continuing to vortex, the appropriate amount of PBS was added. For vesicles formed using the method of sonication, PBS was added directly to the tube while being vortexed to create multilamellar vesicles (MLVs). […]
All fluorescence spectroscopy experiments were preformed using a JY-Horiba Fluoromax4 instrument. […]
Considering that the first step in the mechanism of action of many AMPs is the binding to the bacterial cell surface, binding to model lipid vesicles was performed. […] The impact of lipid composition on binding to model vesicles was investigated using a simple vesicle titration experiment in which Trp fluorescence was measured after addition of lipid vesicles. […]

[6] = 1 μL of MIC plate culture on LB agar, overnight at 37 C
[7] = LB broth, 5 x 10^5 CFU/mL, 18 hours at 37 C, OD600

Sequence: FFKEFWTKMKGAGKAFFGKFKGFF [L1F]
- MBC A. baumannii [1, 6]: 0.938 µM
- MIC A. baumannii [1, 7]: 0.47 µM
- MBC B. subtilis (B. subtilis; [6]): 1.88 µM
- MIC B. subtilis (B. subtilis; [7]): 1.88 µM
- MBC E. coli [2, 6]: >15 µM
- MIC E. coli [2, 7]: 0.94 µM
- MBC K. pneumoniae (K. pneumoniae; [6]): 7.5 µM
- MIC K. pneumoniae (K. pneumoniae; [7]): 1.88 µM
- MBC P. aeruginosa [3, 6]: >15 µM
- MIC P. aeruginosa [3, 7]: 7.5 µM
- MBC S. aureus [4, 6]: 1.88 µM
- MIC S. aureus [4, 7]: 0.94 µM
- Extent of spectral shift (Trp emission barycenter) on binding lipid vesicles [5]: ~ 14 nm
